Results taken from patent US20060069043A1, “Chiral separation, characterization and biological action of optically active isomers of digoxin” (priority 2004, published 2006).
Read-outs that look alike come from different tables or passages of the source.

Key:
[1] = test system: gram-negative and gram-positive bacteria; details: against both gram-negative and gram-positive bacteria; cited from earlier work
guinea pig = assay: Effect on PR interval (AV node conduction) and cardiac contractibility in anesthetized open-chest guinea pig; format: in vivo; details: pentobarbital anesthesia, IV infusion at 6 μg/kg/min continuously
Procedure: The guinea pig or rat is anesthetized with pentobarbital at 40 mg/kg IP, then connected to an EKG recorder. The animal is then placed on a small animal respirator. Aseptic surgical instruments are soaked in ethanol and then flamed. An incision is made in the chest wall to open the chest. A Walton Brody stain gauge arch is sutured to the right ventricle to measure contractile changes. The refractoriness of the AV node is determined by measuring the PR interval on the surface EKG. Graphs can be created from the data displaying the dose related change in the PR interval to the dose related contractile augmentation. Digoxin or chiral isolates are infused through the jugular vein at concentrations (from 0.1 μM and then to 10 μM) at a constant rate by infusion pump, to determine the differential effects on the AV node and cardiac contractibility. The infusions are continued to a 50% level augmentation in contractibility or the development of ventricular tachycardia. To maintain a consistent level of anesthesia, pentobarbital 20 mg/kg IP or 10 mg/kg IV for more immediate action at 30-minute intervals may be administered.
The effect of digoxin and one of the two chiral isomers was evaluated in the guinea pig. Guinea pigs were anesthetized with pentobarbital. […] An EKG was continuously recorded. Conduction through the AV node was determined by measuring the PR interval on the surface EKG. […]

serum protein [2] = assay: Free fraction by centrifugation; format: in vitro ADME; details: for fraction unbound at 60 min: centrifugation time 60 minutes
Procedure: Free fraction of digitoxin increased with centrifugation time from 18% at 10 minutes to 37% at 80 minutes (500 g) without reaching plateau levels.

serum protein [3] = assay: Serum protein binding by equilibrium dialysis; format: in vitro ADME, patients; details: human, read-out: digitoxin binding (protein binding), mean (converted)
Procedure: Equilibrium was obtained after 16 hours when titrated glycoside was added to serum. When added to the buffer phase, equilibrium was reached after 60 hours. Distribution of digitoxin, for example, in buffer-buffer control, was around 50% (49.4 to 50.6%). Absorption of ^3H-labeled glycoside to the dialysis membrane was 0.2% of the added ^3H-glycoside. Digitoxin protein binding was dependent on albumin content. […] No trace of protein was found when adding concentrated perchloric acid to the buffer phase. Counting efficacy was the same whether serum or buffer aliquots were added to the counting fluid. The counting error for buffer samples containing the smallest amount of radioactivity was 1% to 1.5%. Chamber equilibrium dialysis gave similar results. […] No significant change in digitoxin binding was found when the sera from 9 patients were dialyzed at 20° C. (mean, 96.7%) and at 37° C. (mean, 96.9%). Digoxin isolates will be used under similar conditions.

serum protein [4] = assay: In vitro drug studies: ability to induce changes in digitoxin serum protein binding; format: in vitro ADME; details: procainamide 5 mg/ml, phenytoin 50 mg/ml, heparin 5 IU/ml, rifampicillin 4.5 μg/ml
Procedure: The ability to induce changes in digitoxin serum protein binding was tested for the following drugs: procainamide (5 mg/ml), phenytoin (50 mg/ml), heparin (5 IU/ml), and rifampicillin (4.5 μg/ml). […] Identical procedures will be used for digoxin isolates.

CC1COc2c(N3CCN(C)CC3)c(F)cc3c(=O)c(C(=O)O)cn1c23 (single isomer, unassigned; (-)) [(−)-Ofloxacin]
activity relative to the racemate [1]: 8-128 times

CC1O[C@@H](O[C@H]2C(O)C[C@H](O[C@H]3C(O)C[C@H](OC4CC[C@@]5(C)[C@H](CC[C@@H]6[C@@H]5C[C@@H](O)[C@]5(C)[C@@H](C7=CC(=O)OC7)CC[C@]65O)C4)OC3C)OC2C)CC(O)[C@@H]1O (stereo partly shown) [Digoxin]
PR interval on the surface EKG (conduction through the AV node) (guinea pig): progressive increase in PR interval | cardiac contractibility as measured by the strain-gauge arch (guinea pig): increase in cardiac contractibility

C[C@H]1O[C@@H](O[C@H]2[C@@H](O)C[C@H](O[C@H]3[C@@H](O)C[C@H](O[C@H]4CC[C@@]5(C)[C@H](CC[C@@H]6[C@@H]5CC[C@]5(C)[C@@H](C7=CC(=O)OC7)CC[C@]65O)C4)O[C@@H]3C)O[C@@H]2C)C[C@H](O)[C@@H]1O [digitoxin]
fraction unbound at 10 min (serum protein [2]; centrifugation time 10 minutes, 500 g): 0.18 | fraction unbound at 60 min (serum protein [2]; 135 g): 0.059 | fraction unbound at 60 min (serum protein [2]; 560 g): 0.157 | fraction unbound at 80 min (serum protein [2]; centrifugation time 80 minutes, 500 g): 0.37 | fraction unbound (serum protein [3]; sera from 9 patients dialyzed at 20° C.): 0.033 | fraction unbound (serum protein [3]; sera from 9 patients dialyzed at 37° C.): 0.031

O=C1NC(=O)C(c2ccccc2)(c2ccccc2)N1 [phenytoin]
changes in the serum protein binding of digitoxin (serum protein [4]): None of these induced significant changes

CCN(CC)CCNC(=O)c1ccc(N)cc1 [procainamide]
changes in the serum protein binding of digitoxin (serum protein [4]): None of these induced significant changes

heparin
changes in the serum protein binding of digitoxin (serum protein [4]): None of these induced significant changes

rifampicillin
changes in the serum protein binding of digitoxin (serum protein [4]): None of these induced significant changes
